# Data taken from ChEMBL document CHEMBL1201861, “Genomics of Drug Sensitity in Cancer screening data, Wellcome Trust Sanger Institute”.
# Structures can show the parent of a compound that is named as a salt.
# Key:
# Test in all cases: cells
# Assay type in all cases: functional, cell-based, Homo sapiens
# BT-20 = details: Homo sapiens, BT-20;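 note: cell viability assay measuring suppression of growth in human BT-20 cells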
# Description: SANGER: Inhibition of human BT-20 cell growth in a cell viability assay.
# SIMA = details: Homo sapiens, SIMA;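 note: growth inhibition of SIMA cells, measured with a cell viability readout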
# Description: SANGER: Inhibition of human SIMA cell growth in a cell viability assay.
# CAL-62 = details: Homo sapiens, CAL-62;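 note: growth inhibition of CAL-62 cells, read out with a cell viability assay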
# Description: SANGER: Inhibition of human CAL-62 cell growth in a cell viability assay.
# A 172 = details: Homo sapiens, A 172;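 note: growth inhibition of A172 cells, measured with a cell viability readout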
# Description: SANGER: Inhibition of human A172 cell growth in a cell viability assay.
# HCC38 = details: Homo sapiens, HCC38;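 note: cell viability assay on the human HCC38 cell line, with IC50 marking the concentration that inhibits cell growth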
# Description: SANGER: Inhibition of human HCC38 cell growth in a cell viability assay.
# RMG-I = details: Homo sapiens, RMG-I;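 note: growth inhibition of human RMG-I cells, read out with a cell viability assay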
# Description: SANGER: Inhibition of human RMG-I cell growth in a cell viability assay.
# J82 = details: Homo sapiens, J82;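 note: growth inhibition of J82 cells, read out with a cell viability assay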
# Description: SANGER: Inhibition of human J82 cell growth in a cell viability assay.
# NCI-H716 = details: Homo sapiens, NCI-H716;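 note: growth inhibition of human NCI-H716 cells, measured by a cell viability assay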
# Description: SANGER: Inhibition of human NCI-H716 cell growth in a cell viability assay.
# SK-LU-1 = details: Homo sapiens, SK-LU-1;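 note: cell viability assay measuring growth inhibition of human SK-LU-1 cells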
# Description: SANGER: Inhibition of human SK-LU-1 cell growth in a cell viability assay.
# NCI-H2171 = details: Homo sapiens, NCI-H2171;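 note: growth inhibition of human NCI-H2171 cells, read out by a cell viability assay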
# Description: SANGER: Inhibition of human NCI-H2171 cell growth in a cell viability assay.
# MRK-nu-1 = details: Homo sapiens, MRK-nu-1;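 note: cell viability assay measuring growth suppression of human MRK-nu-1 cells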
# Description: SANGER: Inhibition of human MRK-nu-1 cell growth in a cell viability assay.
# NCI-H1963 = details: Homo sapiens, NCI-H1963;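 note: cell growth inhibition of the human line, determined with a cell viability assay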
# Description: SANGER: Inhibition of human NCI-H1963 cell growth in a cell viability assay.
# SW1463 = details: Homo sapiens, SW1463;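 note: growth inhibition of SW1463 cells, determined with a cell viability assay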
# Description: SANGER: Inhibition of human SW1463 cell growth in a cell viability assay.
# RL = details: Homo sapiens, RL
# Description: SANGER: Inhibition of human RL cell growth in a cell viability assay.
# NCI-H661 = details: Homo sapiens, NCI-H661;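 note: cell viability assay read-out, IC50 being the concentration that inhibits growth of the cells by half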
# Description: SANGER: Inhibition of human NCI-H661 cell growth in a cell viability assay.
# KYSE-270 = details: Homo sapiens, KYSE-270;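 note: cell growth inhibition measured with a viability assay in the human KYSE-270 line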
# Description: SANGER: Inhibition of human KYSE-270 cell growth in a cell viability assay.
# HT-1080 = details: Homo sapiens, HT-1080
# Description: SANGER: Inhibition of human HT-1080 cell growth in a cell viability assay.
# NCI-H2052 = details: Homo sapiens, NCI-H2052;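 note: growth inhibition of NCI-H2052 cells, read out with a cell viability assay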
# Description: SANGER: Inhibition of human NCI-H2052 cell growth in a cell viability assay.
# RPMI-7951 = details: Homo sapiens, RPMI-7951
# Description: SANGER: Inhibition of human RPMI-7951 cell growth in a cell viability assay.
# LK-2 = details: Homo sapiens, LK-2;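 note: growth inhibition of LK-2 cells, read out with a viability assay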
# Description: SANGER: Inhibition of human LK-2 cell growth in a cell viability assay.
# HCC1806 = details: Homo sapiens, HCC1806;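 note: growth inhibition of the cancer cell line, determined with a cell viability assay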
# Description: SANGER: Inhibition of human HCC1806 cell growth in a cell viability assay.
# G-361 = details: Homo sapiens, G-361
# CA46 = details: Homo sapiens, CA46;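 note: growth inhibition of human CA46 cells, read out by a cell viability assay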
# Description: SANGER: Inhibition of human CA46 cell growth in a cell viability assay.
# C-33-A = details: Homo sapiens, C-33-A;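 note: cell viability assay measuring growth inhibition of C-33-A cells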
# Description: SANGER: Inhibition of human C-33-A cell growth in a cell viability assay.
# 786-0 = details: Homo sapiens
# Description: SANGER: Inhibition of human 786-0 cell growth in a cell viability assay.
# HEC-1 = details: Homo sapiens, HEC-1;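 note: growth inhibition of the cell line, read out with a cell viability assay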
# Description: SANGER: Inhibition of human HEC-1 cell growth in a cell viability assay.
# DOK = details: Homo sapiens, DOK;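 note: cell viability assay read-out, values reflect inhibition of cell growth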
# Description: SANGER: Inhibition of human DOK cell growth in a cell viability assay.
# BHT-101 = details: Homo sapiens, BHT-101
# Description: SANGER: Inhibition of human BHT-101 cell growth in a cell viability assay.
# HSC-2 = details: Homo sapiens, HSC-2;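 note: growth inhibition of human HSC-2 cells, read out by a cell viability assay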
# Description: SANGER: Inhibition of human HSC-2 cell growth in a cell viability assay.
# SCC-25 = details: Homo sapiens, SCC-25;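 note: growth inhibition of SCC-25 cells, measured with a cell viability assay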
# Description: SANGER: Inhibition of human SCC-25 cell growth in a cell viability assay.
# NY = details: Homo sapiens, NY
# Description: SANGER: Inhibition of human NY cell growth in a cell viability assay.
# LoVo = details: Homo sapiens, LoVo;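 note: growth inhibition of human LoVo cells, read out with a cell viability assay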
# Description: SANGER: Inhibition of human LoVo cell growth in a cell viability assay.
# PFSK-1 = details: Homo sapiens, PFSK-1;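 note: cell viability assay measuring how strongly compounds suppress growth of human PFSK-1 cells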
# Description: SANGER: Inhibition of human PFSK-1 cell growth in a cell viability assay.
# NCI-H1623 = details: Homo sapiens, NCI-H1623;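 note: cell viability assay used as the read-out for growth inhibition of NCI-H1623 cells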
# Description: SANGER: Inhibition of human NCI-H1623 cell growth in a cell viability assay.
# HT-29 = details: Homo sapiens, HT-29;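 note: growth inhibition of human HT-29 cells, read out by a cell viability assay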
# Description: SANGER: Inhibition of human HT-29 cell growth in a cell viability assay.
# WM-115 = details: Homo sapiens, WM-115
# Description: SANGER: Inhibition of human WM-115 cell growth in a cell viability assay.
# HSC-3 = details: Homo sapiens, HSC-3
# Description: SANGER: Inhibition of human HSC-3 cell growth in a cell viability assay.
# HO-1-N-1 = details: Homo sapiens, HO-1-N-1;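 note: growth inhibition of human HO-1-N-1 cells, read out with a cell viability assay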
# Description: SANGER: Inhibition of human HO-1-N-1 cell growth in a cell viability assay.
# SCLC-21H = details: Homo sapiens, SCLC-21H;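 note: growth inhibition of cultured human SCLC-21H cells, read out with a cell viability assay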
# Description: SANGER: Inhibition of human SCLC-21H cell growth in a cell viability assay.
# YKG-1 = details: Homo sapiens, YKG-1;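 note: cell growth inhibition, read out with a viability assay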
# Description: SANGER: Inhibition of human YKG-1 cell growth in a cell viability assay.
# A2780 = details: Homo sapiens, A2780;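 note: growth inhibition of A2780 cells, read out with a cell viability assay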
# Description: SANGER: Inhibition of human A2780 cell growth in a cell viability assay.
# BL-41 = details: Homo sapiens, BL-41;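 note: growth inhibition of human BL-41 cells, read out with a cell viability assay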
# Description: SANGER: Inhibition of human BL-41 cell growth in a cell viability assay.
# AU565 = details: Homo sapiens, AU565;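 note: cell viability assay measuring growth inhibition of human AU565 cells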
# Description: SANGER: Inhibition of human AU565 cell growth in a cell viability assay.
# HT-3 = details: Homo sapiens, HT-3;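 note: growth inhibition measured with a cell viability readout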
# Description: SANGER: Inhibition of human HT-3 cell growth in a cell viability assay.
# LCLC-103H cell line = details: Homo sapiens, LCLC-103H
# Description: SANGER: Inhibition of human LCLC-103H cell growth in a cell viability assay.
# SK-MES-1 = details: Homo sapiens, SK-MES-1;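 note: growth inhibition of human SK-MES-1 cells, read out with a cell viability assay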
# Description: SANGER: Inhibition of human SK-MES-1 cell growth in a cell viability assay.
# EFM-19 = details: Homo sapiens, EFM-19;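 note: growth inhibition of human EFM-19 cells, measured in a cell viability assay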
# Description: SANGER: Inhibition of human EFM-19 cell growth in a cell viability assay.
# SW13 = details: Homo sapiens, SW13;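 note: IC50 is inhibition of SW13 cell growth, read out with a cell viability assay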
# Description: SANGER: Inhibition of human SW13 cell growth in a cell viability assay.
smiles,measurement,setting,value
Nc1ccn([C@@H]2O[C@H](CO)[C@@H](O)C2(F)F)c(=O)n1 [GEMCITABINE],IC50,BT-20,182 nM
same,IC50,SIMA,161 nM
same,IC50,CAL-62,1.22 nM
same,IC50,A 172,24.7 nM
same,IC50,HCC38,21.9 nM
same,IC50,RMG-I,> 1020 nM
same,IC50,J82,7.41 nM
same,IC50,NCI-H716,> 1020 nM
same,IC50,SK-LU-1,< 4 nM
same,IC50,NCI-H2171,> 1020 nM
same,IC50,MRK-nu-1,2.57 nM
same,IC50,NCI-H1963,> 1020 nM
same,IC50,SW1463,510 nM
same,IC50,RL,> 1020 nM
same,IC50,NCI-H661,104 nM
same,IC50,KYSE-270,< 4 nM
same,IC50,HT-1080,5.83 nM
same,IC50,NCI-H2052,145 nM
same,IC50,RPMI-7951,< 4 nM
same,IC50,LK-2,> 1020 nM
same,IC50,HCC1806,2.91 nM
same,IC50,G-361,21.1 nM
same,IC50,CA46,293 nM
same,IC50,C-33-A,< 4 nM
same,IC50,786-0,< 4 nM
same,IC50,HEC-1,124 nM
same,IC50,DOK,> 1020 nM
same,IC50,BHT-101,210 nM
same,IC50,HSC-2,3.03 nM
same,IC50,SCC-25,289 nM
same,IC50,NY,30.2 nM
same,IC50,LoVo,5.71 nM
same,IC50,PFSK-1,> 1020 nM
same,IC50,NCI-H1623,187 nM
same,IC50,HT-29,< 4 nM
same,IC50,WM-115,> 1020 nM
same,IC50,HSC-3,1.91 nM
same,IC50,HO-1-N-1,23.8 nM
same,IC50,SCLC-21H,> 1020 nM
same,IC50,YKG-1,< 4 nM
same,IC50,A2780,< 4 nM
same,IC50,BL-41,14.4 nM
same,IC50,AU565,21.8 nM
same,IC50,HT-3,201 nM
same,IC50,LCLC-103H cell line,33.3 nM
same,IC50,SK-MES-1,< 4 nM
same,IC50,EFM-19,> 1020 nM
same,IC50,SW13,330 nM
COC1=CC(c2cc3ccccc3[nH]2)=N/C1=C\c1[nH]c(C)cc1C [OBATOCLAX MESYLATE],IC50,BT-20,4490 nM
same,IC50,SIMA,494 nM
same,IC50,CAL-62,26 nM
same,IC50,A 172,887 nM
same,IC50,HCC38,2380 nM
same,IC50,RMG-I,782 nM
same,IC50,J82,109 nM
same,IC50,NCI-H716,1690 nM
same,IC50,SK-LU-1,134 nM
same,IC50,NCI-H2171,850 nM
same,IC50,MRK-nu-1,49.4 nM
same,IC50,NCI-H1963,1050 nM
same,IC50,SW1463,1320 nM
same,IC50,RL,> 16000 nM
same,IC50,NCI-H661,1300 nM
same,IC50,KYSE-270,29.8 nM
same,IC50,HT-1080,511 nM
same,IC50,NCI-H2052,567 nM
same,IC50,RPMI-7951,510 nM
same,IC50,LK-2,50.6 nM
same,IC50,HCC1806,124 nM
same,IC50,G-361,< 62.5 nM
same,IC50,CA46,65.4 nM
same,IC50,C-33-A,< 62.5 nM
same,IC50,786-0,< 62.5 nM
same,IC50,HEC-1,36.8 nM
same,IC50,DOK,848 nM
same,IC50,BHT-101,< 62.5 nM
same,IC50,HSC-2,24.7 nM
same,IC50,SCC-25,44.9 nM
same,IC50,NY,118 nM
same,IC50,LoVo,87.2 nM
same,IC50,PFSK-1,1210 nM
same,IC50,NCI-H1623,3090 nM
same,IC50,HT-29,44.9 nM
same,IC50,WM-115,4510 nM
same,IC50,HSC-3,< 62.5 nM
same,IC50,HO-1-N-1,92.5 nM
same,IC50,SCLC-21H,12200 nM
same,IC50,YKG-1,163 nM
same,IC50,A2780,20.8 nM
same,IC50,BL-41,62.2 nM
same,IC50,AU565,425 nM
same,IC50,HT-3,1310 nM
same,IC50,LCLC-103H cell line,185 nM
same,IC50,SK-MES-1,129 nM
same,IC50,EFM-19,124 nM
same,IC50,SW13,406 nM
C=C(c1ccc(C(=O)O)cc1)c1cc2c(cc1C)C(C)(C)CCC2(C)C [BEXAROTENE],IC50,BT-20,> 8000 nM
same,IC50,SIMA,> 8000 nM
same,IC50,CAL-62,> 8000 nM
same,IC50,A 172,> 8000 nM
same,IC50,HCC38,> 8000 nM
same,IC50,RMG-I,> 8000 nM
same,IC50,J82,> 8000 nM
same,IC50,NCI-H716,> 8000 nM
same,IC50,SK-LU-1,> 8000 nM
same,IC50,NCI-H2171,> 8000 nM
same,IC50,MRK-nu-1,> 8000 nM
same,IC50,NCI-H1963,> 8000 nM
same,IC50,SW1463,> 8000 nM
same,IC50,RL,> 8000 nM
same,IC50,NCI-H661,> 8000 nM
same,IC50,KYSE-270,> 8000 nM
same,IC50,HT-1080,> 8000 nM
same,IC50,NCI-H2052,> 8000 nM
same,IC50,RPMI-7951,> 8000 nM
same,IC50,LK-2,> 8000 nM
same,IC50,HCC1806,> 8000 nM
same,IC50,G-361,> 8000 nM
same,IC50,CA46,> 8000 nM
same,IC50,C-33-A,> 8000 nM
same,IC50,786-0,> 8000 nM
same,IC50,HEC-1,> 8000 nM
same,IC50,DOK,> 8000 nM
same,IC50,BHT-101,> 8000 nM
same,IC50,HSC-2,> 8000 nM
same,IC50,SCC-25,> 8000 nM
same,IC50,NY,> 8000 nM
same,IC50,LoVo,5920 nM
same,IC50,PFSK-1,> 8000 nM
same,IC50,NCI-H1623,> 8000 nM
same,IC50,HT-29,> 8000 nM
same,IC50,WM-115,> 8000 nM
same,IC50,HSC-3,> 8000 nM
same,IC50,HO-1-N-1,> 8000 nM
same,IC50,SCLC-21H,> 8000 nM
same,IC50,YKG-1,> 8000 nM
same,IC50,A2780,> 8000 nM
same,IC50,BL-41,> 8000 nM
same,IC50,AU565,> 8000 nM
same,IC50,HT-3,> 8000 nM
same,IC50,LCLC-103H cell line,> 8000 nM
same,IC50,SK-MES-1,> 8000 nM
same,IC50,EFM-19,> 8000 nM
same,IC50,SW13,> 8000 nM
